# Measured values from US20220290105A1, “MESENCHYMAL STEM CELLS WITH ENHANCED THERAPEUTIC PROPERTIES” (CELLS FOR CELLS S.A., priority 2019, published 2022).
# “Also recorded” adds a separate entry of the source. Where two headings read alike, the source gives them in different places.
# How the values were obtained:
# UC-MSCs [1] = experiment: Metabolic status (OCR, ECAR, lactate efflux) and surface markers of treated MSCs (FIG. 4); format: cell-based
# Text: FIG. 4. […] (A) MSCs treated with ATP-Synthase inhibitors show a diminished oxidative phosphorylation, quantified as oxygen consumption rate (OCR), (B) and an enhanced glycolysis, shown as extracellular acidification rate (ECAR).
# In order to determine the efficiency of MSCs treated with ATP-synthase inhibitors, the inventors first evaluated the glycolytic status of UC-MSCs using biochemical parameters such as lactate production and glucose consumption and also if possible, the metabolic status of MSCs treated with ATP-synthase inhibitors was evaluated in real time by measuring the oxygen consumption rate (OCR) or the extra cellular acidification rate (ECAR) by the Seahorse™ technology. Moreover, different functional assays were carried out in order to compare the efficacy of MSCs treated with ATP-synthase inhibitors as compared to non-treated UC-MSCs including evaluation of the differentiation potential towards chondrocytes, viability assays of MSCs, chondroprotection assays, immunosuppression assays and in vivo evaluation using joint inflammation murine models.
# PBMC = experiment: Coculture of human BM-MSCs, UC-MSCs or MenSC with phytohemaglutinine-activated PBMC, T-CD4 and T-CD8 proliferation by FACS (FIG. 12); format: cell-based; conditions: BM-MSCs, 1 MSCs:20 PBMCs ratio, 4 days
# Experimental: FIG. 12. […] Human BM-MSCs, UC-MSCs or MenSC were coculture with freshly isolated PBMC activated with phytohemaglutinine in a 1 MSCs:20 PBMCs ratio. After 4 days proliferation was measured by quantifying the decrease in cell fluorescence on either T-CD4 (A) or T-CD8 (B) cells in PBMCs by FACS. Results are represented as mean and SD of 3 independent experiments using at least 3 different PBMC donors and 2 different BM-MSCs, MenSC and UC-MSCs donors. Statistical analyses used the non-parametric Friedman test comparing more than two groups (*, p<0.05; **, p<0.01; ***, p<0.005).
# GVHD mice = experiment: In vivo model of graft versus host disease (GVHD), Kaplan-Meier survival (FIG. 9); conditions: UC-MSCs pre-treated or not with oligomycin
# Text: FIG. 9. […] A) Experimental design of the in vivo model of GVHD. B) Kaplan-Meier plot showing the survival rate of GVHD mice compared to UC-MSCs that were pre-treated or not with oligomycin. N=15 mice per experimental group performed at least 2 times independently—* p<0.05.
# mice with DTH = experiment: In vivo model of delayed type hypersensitivity (DTH), paw swelling (FIG. 8); conditions: mice treated with MSCs pre-incubated with or without oligomycin
# [2] = tested on: human mononuclear cells (PBMC); experiment: Immunosuppression at different oligomycin pretreatment concentrations, co-culture with human PBMC (FIG. 14); format: cell-based; conditions: pretreatment at 0.1 μg/ml, 1 μg/ml and 10 μg/ml; 4 days co-culture
# Experimental: FIG. 14. […] MSC were with different oligomycin concentration (0.1 μg/ml, 1 μg/ml and 10 μg/ml), the media was removed and the cells were washed and cultured with freshly isolated human mononuclear cells (PBMC) that were stained with cell trace violet. Proliferation of CD4+ and CD8+ was quantified after 4 days of co-culturing by flow cytometry and graphed. N=3 PBMC and * p<0.05.
# The inventors developed and immunosuppression experiment where the MSCs were pretreated with different concentrations of ATP-Synthase inhibitor, such as Oligomycin, more specifically at 0.1 μg/ml, 1 μg/ml and 10 μg/ml. After the pretreatment, the media with ATP-synthase inhibitor was removed, the MSCs were washed, and the MSC were cultured with freshly isolated human mononuclear cells (PBMC) that were stained with cell trace violet.
# UC-MSCs [3] = experiment: Transmigration of UC-MSCs through a semipermeable membrane with 8 μM pores (FIG. 11); format: cell-based; conditions: quantified at 8 hours and 24 hours; 5% fetal bovine serum in lower chamber
# Experimental: FIG. 11. UC-MSCs pretreated with oligomycin promote their transmigration potential. GlycoStem cells were cultured on a semipermeable membrane with […] diameter pores. Cells were seeded in serum-free medium in the upper chamber, while DMEM medium with 5% fetal bovine serum was added in the lower chamber to induce transmigration of the cells. Cell migration was quantified 8 hours (A and B) and 24 hours (C and D) later. […] N=3 different donors from 3 independent experiments * p<0.05.
# UC-MSCs [4] = experiment: Chondrogenic differentiation of UC-MSCs: micromass, Aggrecan qPCR, Collagen II vs Collagen I ratio (FIG. 5); format: cell-based; conditions: basal media; for ratio of Collagen II vs Collagen I production: compared to MSC in basal media (CTL)
# Text: FIG. 5. […] UC-MSCs were differentiated towards chondrogenic lineage. […] The relative expression of the proteoglycan Aggrecan, which is typically expressed in hyaline cartilage, was quantified by qPCR. […] When MSC on basal media (CTL) are compared to MSC treated with inhibitors of the ATP-synthase, these treated MSC present chondrogenic behaviour on the ratio of Collagen II vs Collagen I proportion. […] Also, some inhibitors present the same behaviour than MSC in differentiation media (differentiation) (D).
# murine CD4 = experiment: Immunosuppression after 6 or 24 hours pretreatment, co-culture with murine CD4 (FIG. 15); format: cell-based; conditions: 3 days co-culture
# Experimental: FIG. 15. […] MSC were treated for 6 and 24 hours oligomycin. Then, the media was removed, the cells were washed and these pretreated MSCs were co-cultured during 3 days with freshly isolated murine CD4 that were stained with cell trace violet. Proliferation of CD4+ was quantified by flow cytometry and graphed. N=4 different mice and * p<0.05.
# The inventor developed an incubation experiment were the MSC were treated for 6 and 24 hours with an ATP-Synthase inhibitor, such as Oligomycin. After this treatment, the media with ATP-synthase inhibitor was removed, the MSCs were washed, and the MSCs were co-cultured during 3 days with murine freshly isolated CD4 and their effects were compared.
Structure (SMILES),metabolic switch towards glycolytic dependent metabolism (ECAR/OCR ratio) (UC-MSCs [1]),Surface markers of UC-MSC (UC-MSCs [1]; after metabolic switch),metabolic switch towards glycolytic dependent metabolism (ECAR/OCR ratio) (UC-MSCs [1]; listed as Oligomycin),immunosuppressive abilities of human MSCs (T-CD4 and T-CD8 proliferation) (PBMC),survival rate of GVHD mice (GVHD mice),limb swelling (Paw Swelling) / inflammation in DTH (mice with DTH),suppressive activity (proliferation of CD4+ and CD8+) [2],transmigration / migratory capacity (UC-MSCs [3]),ratio of Collagen II vs Collagen I production (UC-MSCs [4]),relative expression of the proteoglycan Aggrecan (qPCR) (UC-MSCs [4]; compared to untreated control),"generation of three-dimensional tissue (micromass) / spontaneous differentiation into chondrocytes (UC-MSCs [4]; no differentiation media, 24Hrs pre-treatment)",suppressive activity (proliferation of CD4+) (murine CD4; 6 hours pretreatment),suppressive activity (proliferation of CD4+) (murine CD4; 24 hours pretreatment)
"CC[C@H]1/C=C/C=C/C[C@@H](C)[C@H](O)[C@@](C)(O)C(=O)[C@@H](C)[C@H](O)[C@@H](C)C(=O)[C@@H](C)[C@H](O)[C@@H](C)/C=C/C(=O)O[C@@H]2[C@H](C)[C@H](CC1)O[C@]1(CC[C@H](C)[C@H](C[C@@H](C)O)O1)[C@H]2C [oligomycin, Oligomycin]",inducing a strongly glycolytic-dependent metabolism,not affected,induces a glycolytic dependent metabolism,enhances the immunosuppressive abilities of human MSCs independent on the origin,increases the survival rate,increases the therapeutic potential of MSCs,enhanced suppressive activity that is dose dependent,significantly increase their migratory capacity,fold change in the production of collagen type 2 versus collagen type 1,increased relative expression; also recorded: increase in the relative expression,even greater than the three-dimensional tissue obtained by using the differentiation media alone; also recorded: spontaneously differentiate into chondrocytes; also recorded: stimulates the spontaneous differentiation towards a functional three-dimensional cartilage,enhanced the suppressive activity of MSCs,enhanced suppressive activity; also recorded: highest enhancement of the MSCs suppression activity
"Oc1ccc(C=Cc2cc(O)cc(O)c2)cc1 [resveratrol, Resveratrol]",–,–,–,–,–,–,–,–,fold change in the production of collagen type 2 versus collagen type 1; also recorded: promote the MSC in basal media to behave as MSC that are in a differentiation media,–,–,–,–
